# Laboratory results reported in US12281304B2, “Compositions and methods for treating and preventing muscular disorders and dystrophies, steroid side effects, and inflammation” (Children's National Medical Center, priority 2018, dated 2025).
# Tested on: miRNAs in diaphragm muscle of mdx mice
# Assay: TaqMan low-density array (TLDA) miRNA profiling of diaphragm, discovery set (prophylactic mdx trial)
# Assay type: in vivo, mouse
# Excerpt: Archival muscle samples (diaphragm) from two separate preclinical studies were obtained, with each trial showing a significant benefit from both prednisolone and vamorolone drug treatments (23). Prednisolone was used because it is the active form of prednisone, the current DMD standard of care. The first, “discovery set” of diaphragm muscles was from a prophylactic trial design where 2-week old (postnatal day 15) mdx or wild type control mice received oral dosing for 6 weeks with vehicle (cherry syrup), prednisolone (5 mg/kg), or vamorolone (15 mg/kg) as previously reported (23). The second, “validation set” of diaphragm muscles was from an extended trial in older mice where mdx or wild type mice were subjected to treadmill running to unmask mild phenotypes. Mice in this validation set were treated with either vehicle, prednisolone (5 mg/kg) or vamorolone (45 mg/kg) for four months beginning at two months of age (23). At the endpoint of each trial, diaphragm muscles were harvested and frozen in liquid nitrogen-cooled isopentane.
# We extracted total RNA from 5 diaphragm muscles per treatment group in the discovery set of samples from 8-week old mice. RNA was extracted using a modified TRIzol protocol with isopropanol precipitation at −20° C. overnight. This RNA was reverse transcribed to cDNA using a High Capacity cDNA Reverse Transcription Kit with RNase Inhibitor (ThermoFisher; Carlsbad, Calif.), with miRNA-specific Megaplex RT Primers, Rodent Pools Set version 3.0 (ThermoFisher; Carlsbad, Calif.). Levels of each of the miRNAs were profiled in the discovery set using TAQMAN Array Rodent MiRNA A+B Cards Set v3.0 (ThermoFisher; Carlsbad, Calif.).
# In the discovery set experiments, levels of each miRNA were quantified in TaqMan low-density arrays using ThermoFisher Cloud software with the Relative Quantification Application (ThermoFisher; Carlsbad, Calif.) tool. Data was analyzed by ANOVA with post-hoc comparison of each group to the mdx vehicle-treated group. […] A P-value of P≤0.05 was set as the significance threshold, without adjustment for multiple comparisons. To reduce false-positive discovery in this setting, an evidence-based approach was used to identify efficacy associated miRNAs where 1) results from the multiple groups were cross-referenced, and 2) all candidate miRNAs identified in this discovery set were then assayed in a separate validation set of mice. For the validation set experiments, levels of each individual miRNA were assayed in samples from a second, independent preclinical trial in adult mdx mice. Data from individual TaqMan Assays was quantified using QuantStudio Real-Time PCR version 1.3 software (Applied Biosystems; Foster City, Calif.). The levels of all miRNAs were normalized to the geometric mean of multiple control genes (60, 70). Comparison of groups was made by ANOVA with Holm-Sidak post-hoc test comparing each group to mdx vehicle.
# To visualize behavior of miRNAs within individual mice for each group, heat map images were generated. Heat maps were generated using Rq values of TLDA array data exported from the Relative Quantification Application of the ThermoFisher Cloud software (ThermoFisher; Carlsbad, Calif.) tool. Heat maps of miRNA expression were produced using Hierarchical Clustering Explorer Version 3.5 (at www.cs.umd.edu/hcil/multi-cluster/) produced by the Human Computer Interaction Laboratory (University of Maryland; College Park, Md.).
# To examine miRNA expression TaqMan low density qPCR array cards were used to profile approximately 750 miRNAs within diaphragm muscle from a discovery set of mice. Samples for this experiment came from a trial that utilized a prophylactic approach (23). Briefly, mdx mice undergo a stage of peak severity characterized by widespread inflammation and necrosis from approximately 3-8 weeks of age, followed by a recovery stage where mice show milder phenotypes (25). […]
# [1] = discovery set diaphragm muscle, mdx mice, Pred 5 mg/kg, Vam 15 mg/kg
# [2] = mdx diaphragm, vs untreated mdx, Pred 5 mg/kg, Vam 15 mg/kg
smiles,measurement,setting,value
C[C@]12C=CC(=O)C=C1CC[C@@H]1[C@@H]2[C@@H](O)C[C@@]2(C)[C@H]1CC[C@]2(O)C(=O)CO [prednisolone],miRNA 142-3p % expression in comparison to mdx vehicle,[1],50 ± 13 %
same,miRNA 142-5p % expression in comparison to mdx vehicle,[1],44 ± 11 %
same,miRNA 146a % expression in comparison to mdx vehicle,[1],39 ± 6 %
same,miRNA 301a % expression in comparison to mdx vehicle,[1],70 ± 18 %
same,miRNA 324-3p % expression in comparison to mdx vehicle,[1],71 ± 14 %
same,miRNA 455-3p % expression in comparison to mdx vehicle,[1],62 ± 18 %
same,miRNA 455-5p % expression in comparison to mdx vehicle,[1],64 ± 30 %
same,miRNA 497 % expression in comparison to mdx vehicle,[1],49 ± 11 %
same,miRNA 652 % expression in comparison to mdx vehicle,[1],62 ± 14 %
same,number of miRNAs significantly changed in dystrophic muscle,"mdx diaphragm, 8-week-old mice, oral dosing 6 weeks, prednisolone 5 mg/kg, vamorolone 15 mg/kg, versus untreated mdx, P≤0.05",76
same,"expression of 14q32 (mouse 12F1) cluster miRNAs miR-134, miR-370, miR-409, miR-433, miR-493, miR-543","mdx diaphragm, discovery set, prednisolone 5 mg/kg",specifically activated
same,number of miRNAs significantly increased by treatment,"mdx diaphragm, discovery set, prednisolone 5 mg/kg, vamorolone 15 mg/kg, P≤0.05",9
same,expression of the nine efficacy-associated miRNAs elevated in dystrophy,"mdx diaphragm, discovery set, versus mdx vehicle",returned towards healthy wild type levels
same,Rq hsa-let-7i#-002172,[2],0.714
same,Rq hsa-miR-30e-3p-000422,[2],0.739
same,Rq hsa-miR-22#-002301,[2],0.641
same,Rq hsa-miR-140-3p-002234,[2],0.681
same,Rq hsa-miR-143-000466,[2],1.096
same,Rq hsa-miR-154#-000478,[2],1.585
same,Rq hsa-miR-190b-002263,[2],0.547
same,Rq hsa-miR-200c-000505,[2],0.486
same,Rq hsa-miR-206-000510,[2],1.017
same,Rq hsa-miR-213-000516,[2],0.622
same,Rq hsa-miR-214#-002293,[2],0.82
same,Rq hsa-miR-214-000517,[2],0.767
same,Rq hsa-miR-376a#-001287,[2],0.978
same,Rq hsa-miR-455-001280,[2],0.6
same,Rq hsa-miR-744#-002325,[2],0.537
same,Rq mmu-let-7e-002406,[2],0.66
same,Rq mmu-let-7a-000377,[2],0.491
same,Rq mmu-let-7b-000378,[2],0.655
same,Rq mmu-let-7c-1#-002479,[2],1.427
same,Rq mmu-let-7c-000379,[2],0.651
same,Rq mmu-let-7i-002221,[2],0.775
same,Rq mmu-let-7d#-001178,[2],0.556
same,Rq mmu-let-7d-002283,[2],0.714
same,Rq mmu-miR-1-002222,[2],0.868
same,Rq mmu-miR-15a-000389,[2],0.635
same,Rq mmu-miR-16-000391,[2],0.663
same,Rq mmu-miR-18a-002422,[2],1.284
same,Rq mmu-miR-19a-000395,[2],0.846
same,Rq mmu-miR-20a#-002491,[2],0.771
same,Rq mmu-miR-21#-002493,[2],0.707
same,Rq mmu-miR-21-000397,[2],0.659
same,Rq mmu-miR-23b-000400,[2],0.621
same,Rq mmu-miR-25-000403,[2],0.75
same,Rq mmu-miR-26a-000405,[2],0.7
same,Rq mmu-miR-27b-000409,[2],0.796
same,Rq mmu-miR-28-000411,[2],0.759
same,Rq mmu-miR-30e-002223,[2],0.785
same,Rq mmu-miR-30a-000417,[2],0.756
same,Rq mmu-miR-30b-000602,[2],0.785
same,Rq mmu-miR-30c-000419,[2],0.739
same,Rq mmu-miR-31#-002495,[2],0.955
same,Rq mmu-miR-31-000185,[2],1.028
same,Rq mmu-miR-34a-000426,[2],0.712
same,Rq mmu-miR-34b-3p-002618,[2],0.607
same,Rq mmu-miR-34c#-002584,[2],0.623
same,Rq mmu-miR-34c-000428,[2],0.655
same,Rq mmu-miR-99b-000436,[2],0.783
same,Rq mmu-miR-100-000437,[2],0.586
same,Rq mmu-miR-103-000439,[2],0.679
same,Rq mmu-miR-122-002245,[2],0.241
same,Rq mmu-miR-125a-3p-002199,[2],0.666
same,Rq mmu-miR-125b#-002508,[2],0.453
same,Rq mmu-miR-125b-3p-002378,[2],0.561
same,Rq mmu-miR-125b-5p-000449,[2],0.676
same,Rq mmu-miR-126-3p-002228,[2],0.697
same,Rq mmu-miR-126-5p-000451,[2],0.682
same,Rq mmu-miR-127-000452,[2],1.382
same,Rq mmu-miR-128a-002216,[2],0.871
same,Rq mmu-miR-130a-000454,[2],0.758
same,Rq mmu-miR-130b#-002460,[2],0.443
same,Rq mmu-miR-130b-000456,[2],0.757
same,Rq mmu-miR-133a-002246,[2],0.942
same,Rq mmu-miR-134-001186,[2],1.922
same,Rq mmu-miR-136-002511,[2],0.705
same,Rq mmu-miR-138#-002554,[2],0.214
same,Rq mmu-miR-140-001187,[2],0.775
same,Rq mmu-miR-142-3p-000464,[2],0.485
same,Rq mmu-miR-142-5p-002248,[2],0.438
same,Rq mmu-miR-143-002249,[2],0.742
same,Rq mmu-miR-145-002278,[2],0.694
same,Rq mmu-miR-146a-000468,[2],0.397
same,Rq mmu-miR-146b#-002453,[2],0.088
same,Rq mmu-miR-146b-001097,[2],0.555
same,Rq mmu-miR-148a-000470,[2],0.602
same,Rq mmu-miR-148b-000471,[2],0.512
same,Rq mmu-miR-150#-002570,[2],0.297
same,Rq mmu-miR-150-000473,[2],0.516
same,Rq mmu-miR-151-3p-001190,[2],0.877
same,Rq mmu-miR-152-000475,[2],0.721
same,Rq mmu-miR-154-000477,[2],0.606
same,Rq mmu-miR-155-002571,[2],0.742
same,Rq mmu-miR-181a-000480,[2],0.728
same,Rq mmu-miR-181c-000482,[2],0.624
same,Rq mmu-miR-185-002271,[2],0.818
same,Rq mmu-miR-186-002285,[2],0.866
same,Rq mmu-miR-191-002299,[2],0.771
same,Rq mmu-miR-193#-002577,[2],0.799
same,Rq mmu-miR-195-000494,[2],0.491
same,Rq mmu-miR-199a-3p-002304,[2],0.844
same,Rq mmu-miR-199b-001131,[2],0.771
same,Rq mmu-miR-200c-002300,[2],0.508
same,Rq mmu-miR-203-000507,[2],0.575
same,Rq mmu-miR-204-000508,[2],0.722
same,Rq mmu-miR-210-000512,[2],0.759
